The compounds below were run against RORγ (Homo sapiens, UniProt P51449) (assay: RORγ Gal4 Reporter Gene Assay). Settings: not given.
Assay type: cell-based
Protocol: Determination of a ligand mediated Gal4 promoter driven transactivation to quantify ligand binding to RORγ was performed as follows: DNA encoding three different RORγ protein fragments was cloned into vector pCMV-BD (Stratagene). Expression was under control of a CMV promoter and as fusion to the DNA-binding domain of the yeast protein GAL4. Other vectors used were pFR-Luc (Stratagene) as regulated reporter plasmid. pFR-Luc contains a synthetic promoter with five tandem repeats of the yeast GAL4 binding sites that control expression of the Photinus pyralis (American firefly) luciferase gene. In order to improve experimental accuracy the plasmid pRL-CMV was cotransfected. pRL-CMV contains the constitutive CMV promoter, controlling the expression of the Renilla reniformis luciferase.
The medium is supplemented with 10% fetal bovine serum, 0.1 mM nonessential amino acids, 1 mM sodium pyruvate, 1% Glutamax and 100 units Penicilin/[…] per mL at 37° C. in 5% CO2.
For the assay, […] were plated per well in 96 well plates in 100 μL per well, incubated over night at 37° C. in 5% CO2. […] About 4 h after addition of the transfection solution, fresh Minimal Essential Medium (MEM, same composition as used for plating cells, but without serum) was added. Then compound stocks, prediluted in MEM (same composition as used for plating cells) were added (final vehicle concentration not exceeding 0.1%).
All experiments were done at least in triplicates.

Chain of RORγ (P51449 whole entry, looked up, the tested form may be a part): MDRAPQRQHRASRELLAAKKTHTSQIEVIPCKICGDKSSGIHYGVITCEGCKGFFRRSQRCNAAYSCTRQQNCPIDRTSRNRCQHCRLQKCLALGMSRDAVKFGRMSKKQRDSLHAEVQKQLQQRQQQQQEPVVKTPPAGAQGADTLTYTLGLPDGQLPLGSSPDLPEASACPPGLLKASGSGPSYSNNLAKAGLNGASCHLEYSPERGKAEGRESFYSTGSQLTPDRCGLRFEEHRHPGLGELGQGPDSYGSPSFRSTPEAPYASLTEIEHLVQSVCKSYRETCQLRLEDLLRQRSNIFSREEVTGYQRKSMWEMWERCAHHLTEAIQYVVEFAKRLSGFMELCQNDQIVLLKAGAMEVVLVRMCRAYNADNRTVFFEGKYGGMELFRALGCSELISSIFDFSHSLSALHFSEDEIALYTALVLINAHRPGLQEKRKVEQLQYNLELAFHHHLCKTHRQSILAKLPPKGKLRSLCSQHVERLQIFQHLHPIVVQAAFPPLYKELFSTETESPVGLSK

Compound	pIC50 (FF)	pIC50 (REN)
CCCc1nc(C(=O)NC2CCS(=O)(=O)CC2)sc1-c1ccc(S(=O)(=O)NC(C)(C)C)c2ccccc12 [300/7]	nt/7.7/7.9	nt/7.7/7.9
CCCc1nc(C(=O)NCC(C)(C)O)sc1-c1ccc(S(=O)(=O)N[C@@H](C)C(F)(F)F)c2ccccc12 [300/9]	nt/7.9/7.9	nt/7.9/7.9
CC(C)(C)NS(=O)(=O)c1ccc(-c2sc(C(=O)NC3CCS(=O)(=O)CC3)nc2C2CCC2)c2ccccc12 [300/10]	nt/7.2/7.3	nt/7.2/7.3
CC(C)(C)NS(=O)(=O)c1ccc(-c2sc(C(=O)NC3CCS(=O)(=O)CC3)nc2-c2cccnc2)c2ccccc12 [300/12]	nt/6.1/6.2	nt/6.1/6.2
CC(C)(C)NS(=O)(=O)c1ccc(-c2sc(C(=O)NC3CCS(=O)(=O)CC3)nc2Cc2cccnc2)c2ccccc12 [300/13]	nt/6.4/6.6	nt/6.4/6.6
CC(C)(C)NS(=O)(=O)c1ccc(-c2sc(C(=O)NC3CCS(=O)(=O)CC3)nc2-c2cccc(Cl)c2)c2ccccc12 [300/14]	nt/8.2/8.2	nt/8.2/8.2
CC(C)(C)NS(=O)(=O)c1ccc(-c2sc(C(=O)NC3CCS(=O)(=O)CC3)nc2-c2cccc(C#N)c2)c2ccccc12 [300/15]	nt/7.3/7.4	nt/7.3/7.4
CC(C)(C)NS(=O)(=O)c1ccc(-c2sc(C(=O)NC3CCS(=O)(=O)CC3)nc2-c2cccc(C(N)=O)c2)c2ccccc12 [300/16]	nt/6.0/6.1	nt/6.0/6.1
CC(C)(C)NS(=O)(=O)c1ccc(-c2sc(C(=O)N[C@H]3C[C@H](C(=O)O)C3)nc2C2CCCCC2)c2ccccc12 [300/17]	nt/8.0/8.0	nt/8.0/8.0
CCC(C)(C)NS(=O)(=O)c1ccc(-c2sc(C(=O)N3CC4(C3)CS(=O)(=O)C4)nc2C(=O)N2CCC(C)CC2)c(Cl)c1C [301/2]	nt/7.7/7.8	nt/7.7/7.8
CC(C)(O)CNC(=O)c1nc(C(=O)N2CCCCC2(C)C)c(-c2ccc(S(=O)(=O)NC(C)(C)C)c3ccccc23)s1 [304/6]	nt/6.6/6.8	nt/6.6/6.8
CC1CCCN(C(=O)c2nc(C(=O)NCC(C)(C)O)sc2-c2ccc(S(=O)(=O)NC(C)(C)C)c3ccccc23)C1C (centres unmarked) [304/9]	nt/7.3/7.4	nt/7.3/7.4
CCC1CCN(C(=O)c2nc(C(=O)NCC(C)(C)O)sc2-c2ccc(S(=O)(=O)NC(C)(C)C)c3ccccc23)CC1 [304/10]	nt/7.5/7.5	nt/7.5/7.5
CC1CCN(C(=O)c2nc(C(=O)NCC(C)(C)O)sc2-c2ccc(S(=O)(=O)N[C@@H](C)C(F)(F)F)c3ccccc23)CC1 [304/12]	nt/7.7/7.7	nt/7.7/7.7
CCC(C)(C)NS(=O)(=O)c1ccc(-c2sc(C(=O)NCC(C)(C)O)nc2C(=O)N2CCC(C)CC2)c2ccccc12 [304/13]	nt/7.6/7.7	nt/7.6/7.7
CCC(C)(C)NS(=O)(=O)c1ccc(-c2sc(C(=O)NC3CCS(=O)(=O)CC3)nc2C(=O)N2CCC(C)CC2)c2ccccc12 [304/14]	nt/7.5/7.6	nt/7.5/7.6

Compound	pIC50 (FF)	pIC50 (REN)
CCC(C)(C)NS(=O)(=O)c1ccc(-c2sc(C(=O)NC3CCOCC3)nc2C(=O)N2CCC(C)CC2)c2ccccc12 [304/15]	nt/7.6/7.7	nt/7.6/7.7
CC1CCN(C(=O)c2nc(C(=O)N3CC4(CCS(=O)(=O)CC4)C3)sc2-c2ccc(S(=O)(=O)NC(C)(C)C)c3ccccc23)CC1 [304/16]	nt/6.6/6.6	nt/6.6/6.6
CC1CCN(C(=O)c2nc(C(=O)N3CC4(CCOCC4)C3)sc2-c2ccc(S(=O)(=O)NC(C)(C)C)c3ccccc23)CC1 [304/17]	nt/7.2/7.2	nt/7.2/7.2
CC1CCN(C(=O)c2nc(C(=O)NC3CC34CCOCC4)sc2-c2ccc(S(=O)(=O)NC(C)(C)C)c3ccccc23)CC1 (centres unmarked) [304/18]	nt/7.5/7.7	nt/7.5/7.7
CC1CCN(C(=O)c2nc(C(=O)NCC(C)(C)O)sc2-c2ccc(S(=O)(=O)NCC(C)(C)C)c3ccccc23)CC1 [304/19]	nt/7.4/7.5	nt/7.4/7.5
CCN(C(C)(C)C)S(=O)(=O)c1ccc(-c2sc(C(=O)NCC(C)(C)O)nc2C(=O)N2CCC(C)CC2)c2ccccc12 [304/20]	nt/7.4/7.7	nt/7.4/7.7
CC1CCN(C(=O)c2nc(C(=O)NCC(C)(C)O)sc2-c2ccc(S(=O)(=O)NCC(F)(F)F)c3ccccc23)CC1 [304/21]	nt/7.4/7.4	nt/7.4/7.4
CC1CCN(C(=O)c2nc(C(=O)NCC(C)(C)O)sc2-c2ccc(S(=O)(=O)NCC(C)(C)O)c3ccccc23)CC1 [304/22]	nt/5.8/5.8	nt/5.8/5.8
CC1CCN(C(=O)c2nc(C(=O)NCC(C)(C)O)sc2-c2ccc(S(=O)(=O)N(CC(F)(F)F)C(C)(C)C)c3ccccc23)CC1 [304/23]	nt/7.5/7.7	nt/7.5/7.7
CC1CCN(C(=O)c2nc(C(=O)NCC(C)(C)O)sc2-c2ccc(S(=O)(=O)NC3CCOC3)c3ccccc23)CC1 (centres unmarked) [304/24]	nt/6.6/6.7	nt/6.6/6.7
CC1CCN(C(=O)c2nc(C(=O)NCC(C)(C)O)sc2-c2ccc(S(=O)(=O)N3CCCCC3(C)C)c3ccccc23)CC1 [304/25]	nt/8.0/7.6	nt/8.0/7.6
CC1CCN(C(=O)c2nc(C(=O)NCC(C)(C)O)sc2-c2ccc(S(=O)(=O)NC3(C)CCC3)c3ccccc23)CC1 [304/26]	nt/8.0/7.9	nt/8.0/7.9
CC1CCN(C(=O)c2nc(C(=O)NCC(C)(C)O)sc2-c2ccc(S(=O)(=O)NC3(C)CC3)c3ccccc23)CC1 [304/27]	nt/7.6/7.5	nt/7.6/7.5
CC(C)(C)NS(=O)(=O)c1ccc(-c2nc(C(=O)N[C@H]3C[C@H](C(=O)O)C3)sc2CC2CCCCC2)c2ccccc12 [Example 25/1]	nt/8.9/8.8	nt/8.9/8.8
CCC(C)(C)NS(=O)(=O)c1ccc(-c2sc(C(=O)NC3CCS(=O)(=O)CC3)nc2C(=O)N2CCC(C)CC2)c(Cl)c1C [Example 301, 5-(2-Chloro-3-methyl-4-(N-(tert-pentyl)sulfamoyl)phenyl)-N-(1,1-dioxidotetrahydro-2H-thiopyran-4-yl)-4-(4-methylpiperidine-1-carbonyl)thiazole-2-carboxamide]	nt/7.8/7.9	nt/7.8/7.9

Same assay, conditions: firefly (FF) luciferase, 293T cells

pIC50 (FF)	Compound
nt/6.1/6.1	CC(C)(C)c1cc(-c2nc(C(=O)N[C@H]3C[C@H](C(=O)O)C3)sc2CC2CCCCC2)cc(C2(C)CC2)c1 [Example 25, trans-3-(4-(3-(tert-Butyl)-5-(1-methylcyclopropyl)phenyl)-5-(cyclohexylmethyl)thiazole-2-carboxamido)cyclobutanecarboxylic acid]

Same assay, conditions: firefly (FF) luciferase, 293T cells; read-out: pIC50 (FF) (converted)

IC50 [nM]	Compound
79.4	CCCc1nc(C(=O)N[C@H]2C[C@H](C(=O)O)C2)sc1-c1ccc(S(=O)(=O)NC(C)(C)C)c2ccccc12 [300/8]
31.6	CC(C)(C)NS(=O)(=O)c1ccc(-c2sc(C(=O)N[C@H]3C[C@H](C(=O)O)C3)nc2Cc2ccccc2)c2ccccc12 [300/18]

Same assay, conditions: renilla normalised (RENnorm) luciferase, 293T cells

pIC50 (REN)	Compound
nt/6.1/6.1	CC(C)(C)c1cc(-c2nc(C(=O)N[C@H]3C[C@H](C(=O)O)C3)sc2CC2CCCCC2)cc(C2(C)CC2)c1 [Example 25, trans-3-(4-(3-(tert-Butyl)-5-(1-methylcyclopropyl)phenyl)-5-(cyclohexylmethyl)thiazole-2-carboxamido)cyclobutanecarboxylic acid]

Same assay, conditions: renilla normalised (RENnorm) luciferase, 293T cells; read-out: pIC50 (REN) (converted)

IC50 [nM]	Compound
63.1	CCCc1nc(C(=O)N[C@H]2C[C@H](C(=O)O)C2)sc1-c1ccc(S(=O)(=O)NC(C)(C)C)c2ccccc12 [300/8]
25.1	CC(C)(C)NS(=O)(=O)c1ccc(-c2sc(C(=O)N[C@H]3C[C@H](C(=O)O)C3)nc2Cc2ccccc2)c2ccccc12 [300/18]
